Reference: ChEMBL document CHEMBL1154355, “Identification of the bioactive constituent and its mechanisms of action in mediating the anti-inflammatory effects of black cohosh and related Cimicifuga species on human primary blood macrophages” (2009)
Calls of active or inactive are those of the source. The calls are words filed in the database; no cut-off is given here.

Key:
PBMC [1] = assay: Antiinflammatory activity in human PBMC assessed as inhibition of 10 ng/ml LPS-induced TNFalpha release at 1.3 uM pretreated 24 hrs before inducer-challenge measured 24 hrs after LPS addition by ELISA; type: functional
PBMC [2] = assay: Antiinflammatory activity in human PBMC assessed as inhibition of 10 ng/ml LPS-induced TNFalpha release at 5.1 uM pretreated 24 hrs before inducer-challenge measured 24 hrs after LPS addition by ELISA; type: functional
PBMC [3] = assay: Antiinflammatory activity in human PBMC assessed as inhibition of 1 ng/ml LPS-induced TNFalpha release at 140 uM pretreated 24 hrs before inducer-challenge measured 24 hrs after LPS addition by ELISA; type: functional
[4] = molecular target: Mitogen-activated protein kinase; ERK1/ERK2 (Homo sapiens) (UniProt P27361+P28482); assay: Inhibition of LPS-induced ERK1/2 phosphorylation in human PBMC at 140 uM pretreated 24 hrs before inducer-challenge measured 15 mins after LPS addition by Western blot; type: protein assay
[5] = molecular target: MAP kinase p38 (Homo sapiens) (UniProt O15264+Q15759+Q16539+P53778); assay: Inhibition of LPS-induced p38 MAPK phosphorylation in human PBMC at 140 uM pretreated 24 hrs before inducer-challenge measured 15 mins after LPS addition by Western blot; type: protein assay
PBMC [6] = assay: Antiinflammatory activity in human PBMC assessed as inhibition of 10 ng/ml LPS-induced TNFalpha release at 140 uM pretreated 24 hrs before inducer-challenge measured 24 hrs after LPS addition by ELISA; type: functional
PBMC [7] = assay: Inhibition of LPS-induced NFkappaB p65 subunit translocation into nucleus in human PBMC at 140 uM pretreated 24 hrs before inducer-challenge measured 15 mins after LPS addition by Western blot; type: functional, cell-based

Mitogen-activated protein kinase; ERK1/ERK2 (Homo sapiens), sequence (P27361 whole entry, looked up): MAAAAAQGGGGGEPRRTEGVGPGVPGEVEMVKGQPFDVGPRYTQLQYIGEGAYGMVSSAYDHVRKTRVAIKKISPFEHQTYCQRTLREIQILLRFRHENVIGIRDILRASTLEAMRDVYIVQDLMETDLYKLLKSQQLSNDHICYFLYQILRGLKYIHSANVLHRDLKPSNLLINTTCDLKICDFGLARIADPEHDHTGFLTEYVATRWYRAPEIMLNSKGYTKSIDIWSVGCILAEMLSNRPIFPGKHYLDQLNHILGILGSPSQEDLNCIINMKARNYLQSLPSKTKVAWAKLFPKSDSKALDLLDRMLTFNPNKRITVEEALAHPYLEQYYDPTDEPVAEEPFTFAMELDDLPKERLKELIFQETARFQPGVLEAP
Mitogen-activated protein kinase; ERK1/ERK2 (Homo sapiens), sequence (P28482 whole entry, looked up): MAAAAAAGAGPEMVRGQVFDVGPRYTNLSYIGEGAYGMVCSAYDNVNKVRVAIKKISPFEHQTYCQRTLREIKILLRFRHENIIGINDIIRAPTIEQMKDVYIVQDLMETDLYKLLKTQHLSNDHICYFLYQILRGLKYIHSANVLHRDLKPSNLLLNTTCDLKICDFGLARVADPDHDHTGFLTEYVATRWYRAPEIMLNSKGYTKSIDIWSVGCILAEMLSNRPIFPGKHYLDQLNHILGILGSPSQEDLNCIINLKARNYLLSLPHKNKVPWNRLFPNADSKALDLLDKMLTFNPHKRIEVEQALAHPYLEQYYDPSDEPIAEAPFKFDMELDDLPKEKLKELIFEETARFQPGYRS

Structure (SMILES): C[C@@H]1C[C@H]2[C@@H]3CCC4=CC(=O)C=C[C@]4(C)[C@@]3(F)[C@@H](O)C[C@]2(C)[C@@]1(O)C(=O)CO [DEXAMETHASONE]
- inhibition (INH) (PBMC [1]): 32%
- inhibition (INH) (PBMC [2]): 25%

Structure (SMILES): COc1ccc(/C=C/C(=O)OCC(=O)Cc2ccc(O)c(O)c2)cc1O [CIMIRACEMATE A]
- inhibition (INH) (PBMC [3]): 47%
- inhibition [4]: Active
- inhibition [5]: inactive
- inhibition (INH) (PBMC [6]): 58%
- inhibition (PBMC [7]): Active
